{"source": "paper PMC7650794", "about": "“Pharmacological Modulation of Blood–Brain Barrier Permeability by Kinin Analogs in Normal and Pathologic Conditions” (Pharmaceuticals, 2020)", "key": {"[1]": {"target": "T1, human B2R (Homo sapiens, UniProt P30411)", "T1 construct": "expressed in transfected cells; host or cells: QBI HEK 293A cells, lentiviral transduction with pCDH-BDKRB2, puromycin selection", "T1 sequence (P30411 1-391)": "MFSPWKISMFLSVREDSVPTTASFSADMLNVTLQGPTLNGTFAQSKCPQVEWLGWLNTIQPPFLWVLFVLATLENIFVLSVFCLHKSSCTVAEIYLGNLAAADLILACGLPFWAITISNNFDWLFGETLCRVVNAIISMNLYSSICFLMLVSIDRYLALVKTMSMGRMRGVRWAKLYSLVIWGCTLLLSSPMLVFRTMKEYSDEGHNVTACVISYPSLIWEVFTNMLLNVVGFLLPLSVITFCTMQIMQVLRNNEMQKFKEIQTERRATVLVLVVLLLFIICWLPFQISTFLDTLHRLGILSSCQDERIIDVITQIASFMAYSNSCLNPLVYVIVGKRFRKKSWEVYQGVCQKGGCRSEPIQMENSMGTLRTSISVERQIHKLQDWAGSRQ", "assay": "Radioligand displacement binding assay, [3H]BK, human B2R-HEK293 cells", "conditions": "for IC50: displacement of 1 nM [3H]BK, living adherent HEK293 cells stably expressing human B2R, serum-free DMEM, 1.5 h, 4 °C, mean of two independent experiments performed in duplicates; for binding affinity at human B2R, in words: HEK293 cells stably expressing human B2R", "description": "The pCDH-BDKRB2 vector was produced from the plasmid pcDNA3.1/human BDKRB2 by PCR amplification using the primers 5′-[…]-3′ and 5′-[…]-3′, and introduced into pCDH-CMV-MCS-EF1 vector using BamHI et XbaI restriction sites. Lentiviruses were produced from pCDH-BDKRB2 vector in HEK293T cells using the X-tremeGENE HP transfection reagent (Millipore-Sigma, Oakville, ON, Canada). Lentiviruses were harvested 48 h post-transfection and used to infect QBI HEK 293A cells (ATCC). Transduced cells were selected using 5 µg/mL of puromycin (Thermo Fisher, Burlington, On, Canada).\nRadioligand displacement binding assays were performed as we previously described, with slight modifications. HEK293 cells stably expressing human B2R were used for these assays (see text above). […] Radioactivity of samples was measured by a β-scintillation counter (PerkinElmer, Woodbridge, On, Canada). Binding affinities of peptides were expressed in terms of IC50 values—the molar concentration of an unlabeled agonist causing 50% displacement of specific binding (GraphPad Prism 8.2)."}, "[2]": {"target": "T1, human B2R", "assay": "IP-One accumulation assay, human B2R-HEK293 cells", "type": "cell-based", "conditions": "for EC50: IP1 accumulation, 30 min, room temperature, pH 7.4, 50 mM LiCl, human B2R-HEK293, 15,000 cells per well, mean of two independent experiments performed in duplicates, read-out: IP1 Assays (EC50; nM)", "description": "The IP-One assay was performed on living, adherent human B2R-HEK293 cells according to the manufacturer’s recommendations (Cisbio, #62IPAPEB, Bedford, MA, USA). […] IP1-d2 and anti-IP1-Cryptate were added for at least 1 h. Fluorescence signal was measured using a Tecan M1000 plate reader (excitation at 320 nm and emission at 620 and 665 nm). EC50 values were calculated by curve-fitting using GraphPad Prism 8.2."}, "[3]": {"system": "BBB / brain cancer", "design": "method as in PMID 22709590", "conditions": "ref [33]; cited from earlier work"}, "[4]": {"system": "GBM cells", "conditions": "vs. temozolomide (TMZ); ref [33]; cited from earlier work"}, "[5]": {"system": "BBB, irradiated mouse brain", "assay": "DCE-MRI of BBB permeability to Gd-DTPA in irradiated mouse brain", "type": "in vivo", "conditions": "T1-weighted, 10 months after 45 Gy; Gd-DTPA alone or with NG291 50 µg/kg i.v.", "source_text": "Female Balb/c mice were anesthetized using 1.5 L/min oxygen containing isoflurane (3% for induction, 2% for maintenance) and positioned on a custom-designed stereotactic bed compatible with the Leksell Gamma Knife Perfexion (Elekta AB, Stockholm, Sweden). A maximum dose of 45 Gy (23.1 Gy at the 50% isodose) was delivered through 4 mm collimators in the right hemisphere of the brain. Mouse and human brains have different sensitivities to radiation. This dose was selected because it allows the development and slow progression of radiation necrosis (approximatively appearing at 17 months post-irradiation in T2-weighted MRI; Figure 4), similar to what may be observed in brain cancer patients who received radiotherapy. After irradiation, mice were placed on a heating pad to recover, and were then returned to their cages.\nFor dynamic contrast-enhanced (DCE)-MRI imaging, pre-contrast T1-weighted imaging with an array of flip angles (α = 10°, 20°, 25°, 35°, 50°) was performed to acquire a T1 map with the following parameters: TR = 100 ms, TE = 2.79 ms, data matrix = 128 × 128, FOV = 20 × 20 mm^2; 1 average; 10 slices; 1 mm slice thickness. Then, a dynamic acquisition with the same parameters and a fixed angle at 30° was acquired before, during, and after injection of contrast agent. […]"}, "[6]": {"system": "normal mice", "assay": "Tolerability / blood pressure effect in anesthetized normal mice", "type": "in vivo, mouse"}, "[7]": {"system": "angiotensin-converting enzyme (ACE, alias kininase II)", "conditions": "ref [26]; cited from earlier work"}, "[8]": {"system": "4T1-luc mammary cancer cells, brain metastases in mice", "assay": "4T1-luc breast cancer brain metastasis model", "type": "in vivo, mouse", "conditions": "NG291 50 μg/kg over 5 min i.v., single dose, 18 days, 6–8 animals", "description": "Mice were anesthetized using 1.5 L/min oxygen-containing isoflurane (3% for induction, 2% for maintenance) and secured with tape in a supine position on a heating pad. A total of 1 × 10^5 4T1-Luc cells suspended in 100 µL of sterile saline was slowly injected into the left ventricle of the heart using a 1 mL Hamilton syringe mounted with a 30G needle as described previously. For BBB disruption experiments, a cannula was placed in the caudal vein and a single dose of NG291 (50 µg/kg/5 min) was infused into the caudal vein while simultaneously injecting the cancer cells intracardially. Successful intracardiac injection and tumor development was evaluated weekly by bioluminescence imaging. The development of brain metastatic tumor burden was determined by histological analysis.\nBrain sections from mice inoculated with 4T1-Luc cells were stained with hematoxylin-eosin (H and E) for histological examination and metastases quantification using the NanoZoomer Digital Pathology software (Hamamatsu, NDP.view version 2.7.25). H and E staining was performed on brain sections every 20–30 µm. The relative total area and number of metastatic foci in the entire brain section were calculated from manual delineation of metastases in digital images of H and E-stained brain slides using the NanoZoomer NDP.view2 viewing software free hand tool. […] A total of 68 slices were analyzed."}, "[9]": {"system": "leucocytes, brain", "conditions": "exogenous BK; ref [21],[24]; cited from earlier work"}, "[10]": {"system": "BBB / BTB", "design": "method as in 2 sources, one per row (each row's own in cited_ref): ref [2],[13] = [2]; PMID 15153840; doi:10.1177/107327480401100304; 2. Black K.L. Ningaraj N.S. Modulation of brain tumor capillaries for enhanced drug delivery selectively to brain tumor Cancer Control. 2004 11 165 173 10.1177/107327480401100304 15153840 || [13]; PMID 11286321; doi:10.2165/00003088-200140020-00003; 13. Emerich D.F. Dean R.L. Osborn C. Bartus R.T. The development of the bradykinin agonist labradimil as a means to increase the permeability of the blood-brain barrier: From concept to clinical evalu ||| ref [2],[46],[47] = [2]; PMID 15153840; doi:10.1177/107327480401100304; 2. Black K.L. Ningaraj N.S. Modulation of brain tumor capillaries for enhanced drug delivery selectively to brain tumor Cancer Control. 2004 11 165 173 10.1177/107327480401100304 15153840 || [46]; PMID 20146088; doi:10.1007/s11060-010-0124-x; 46. Liu L.B. Xue Y.X. Liu Y.H. Bradykinin increases the permeability of the blood-tumor barrier by the caveolae-mediated transcellular pathway J. Neurooncol. 2010 99 187 194 10.1007/s11060-010-0124-x || [47]; PMID 12023511; doi:10.1124/jpet.301.3.838; 47. Ningaraj N.S. Rao M. Hashizume K. Asotra K. Black K.L. Regulation of blood-brain tumor barrier permeability by calcium-activated potassium channels J. Pharmacol. Exp. Ther. 2002 301 838 851 10.112", "conditions": "increased numbers of pinocytotic vesicles or caveolae; ref [2],[46],[47]; cited from earlier work", "source_text": "Kinin effects are mediated through specific activation of two types of receptors, namely, the kinin B1 (B1R) and B2 receptors (B2R), both belonging to the G-protein-coupled receptor family. […] The strategy exploiting targeted stimulation of the kinin receptors could perhaps ..."}}, "note": "Entries after “also recorded” stand apart in the source; their conditions may differ. Non-standard residues stand in square brackets, D forms with d. Residues, ends and D or L forms follow the SMILES beside them. No end group written: not given here. Hyp = O=C(O)[C@@H]1C[C@@H](O)CN1; 2Thi = N[C@@H](Cc1cccs1)C(=O)O; Gly(N-cHex) = O=C(O)CNC1CCCCC1", "data": [{"compound": "N=C(N)NCCC[C@@H](N)C(=O)N[C@@H](CCCNC(=N)N)C(=O)N1CCC[C@H]1C(=O)N1C[C@H](O)C[C@H]1C(=O)NCC(=O)N[C@H](C(=O)N[C@@H](CO)C(=O)N1[C@H](C(=O)N[C@H](C(=O)N[C@@H](CCCNC(=N)N)C(=O)O)C2Cc3ccccc3C2)C[C@@H]2CCCC[C@@H]21)C1Cc2ccccc2C1", "note": "[B9972, DArg[Hyp^3, Igl^5, Oic^7, Igl^8]-BK]", "values": [{"measurement": "IC50", "setting": "[1]", "value": 199, "unit": "nM"}, {"measurement": "EC50", "setting": "[2]", "value": 158, "unit": "nM"}]}, {"compound": "COc1cccc2c1C(=O)c1c(O)c3c(c(O)c1C2=O)C[C@@](O)(C(=O)CO)C[C@@H]3O[C@H]1C[C@H](N)[C@H](O)[C@H](C)O1", "note": "[DOX, doxorubicin]", "values": [{"measurement": "BBB crossing and in vivo efficacy in brain cancer", "setting": "[3]", "value": "does not readily cross the BBB and so shows poor efficacy in in vivo models"}, {"measurement": "potency for killing GBM cells in vitro", "setting": "[4]", "value": "more potent than temozolomide (TMZ) for killing GBM cells in vitro"}]}, {"compound": "CNC[C@H](O)[C@@H](O)[C@H](O)[C@H](O)CO.CNC[C@H](O)[C@@H](O)[C@H](O)[C@H](O)CO.O=C([O-])CN(CCN(CC(=O)[O-])CC(=O)O)CCN(CC(=O)[O-])CC(=O)O.[Gd+3]", "note": "[Gd-DTPA]", "values": [{"measurement": "contrast enhancement in the irradiated hemisphere", "setting": "[5]", "value": "Minimal contrast enhancement was observed in the irradiated hemisphere"}]}, {"compound": "N=C(N)NCCC[C@H](NC(=O)[C@H](Cc1cccs1)NC(=O)CN(C(=O)[C@H](CO)NC(=O)[C@H](Cc1cccs1)NC(=O)CNC(=O)[C@@H]1C[C@@H](O)CN1C(=O)[C@@H]1CCCN1C(=O)[C@@H](N)CCCNC(=N)N)C1CCCCC1)C(=O)O", "note": "[NG291, [Hyp^3, Thi^5, ^NChg^7, Thi^8]-BK] (H-RP[Hyp]G[2Thi]S[Gly(N-cHex)][2Thi]R-OH)", "values": [{"measurement": "hypotensive effect", "setting": "[6]; high dose i.v. NG291, ketamine/xylazine-anesthetized normal mice, strong but reversible, not shown", "value": "about -35 mmHg"}, {"measurement": "tolerability", "setting": "[6]; high dose i.v. NG291, normal mice", "value": "generally well-tolerated"}, {"measurement": "protection against enzymatic degradation by ACE", "setting": "[7]", "value": "fully protected against enzymatic degradation by the angiotensin-converting enzyme"}, {"measurement": "IC50", "setting": "[1]", "value": 3, "unit": "nM"}, {"measurement": "EC50", "setting": "[2]", "value": 0.9, "unit": "nM"}, {"measurement": "effect on brain tumor burden and number of metastases, in words", "setting": "[8]", "value": "did not significantly increase brain tumor burden; also recorded: no difference in terms of both area and number of metastases"}]}, {"compound": "N=C(N)NCCC[C@@H](N)C(=O)N[C@H](Cc1ccccc1)C(=O)N1CCC[C@@H]1C(=O)N[C@H](CO)C(=O)N[C@H](Cc1ccccc1)C(=O)NCC(=O)N1CCC[C@@H]1C(=O)N1CCC[C@@H]1C(=O)N[C@H](CCCNC(=N)N)C(=O)O", "note": "[RI-BK, D(retroinverso)-BK] (H-[dR][dF][dP][dS][dF]G[dP][dP][dR]-OH; N-terminus and C-terminus assumed)", "values": [{"measurement": "binding affinity at human B2R, in words", "setting": "[1]", "value": "no binding affinity"}, {"measurement": "IC50", "setting": "[1]", "value": "> 10000", "unit": "nM"}, {"measurement": "agonist activity/potency at human B2R, in words", "setting": "[2]; IP1, HEK293 cells stably expressing human B2R", "value": "no binding affinity and agonist activity at human B2R"}, {"measurement": "EC50", "setting": "[2]", "value": "> 10000", "unit": "nM"}]}, {"compound": "RPPGFSPFR [BK, H-Arg^1-Pro^2-Pro^3-Gly^4-Phe^5-Ser^6-Pro^7-Phe^8-Arg^9-OH]", "values": [{"measurement": "brain trafficking of IV-infused leucocytes", "setting": "[9]", "value": "can increase brain trafficking of IV-infused leucocytes"}, {"measurement": "binding affinity at human B2R, in words", "setting": "[1]", "value": "higher binding affinity (IC50)"}, {"measurement": "BTB permeability by the transcellular pathway", "setting": "[10]", "value": "may increase BTB permeability, as well by means of the transcellular pathway"}]}]}
